# Target: T1, CDK2 (Homo sapiens, UniProt P24941)
# T1 construct: High-Throughput Measurement of Cellular Endogenous CDK2; endogenous in cells; host or cells: OVCAR3
# Assay: Inhibition of CDK2: phospho-Rb (S807/811) HTRF measurement in OVCAR3 cells, 24 h
# Type: cell-based
# Conditions: 24 h compound treatment, read-out: pRB_OVCAR3_24h
# Procedure: Inhibition of CDK2: Phospho-R^b Measurement in Cells
# Phosphorylation of RB protein at S807/811 were measured using HTRF phospho-RB cellular kits (Cat #64RBS807PEG) from Cisbio.
# On Day 1, OVCAR3 (CDK2 dependent cell line) cells were seeded into 96-well tissue-culture treated plates at 20,000 cells/well in 200 μL and incubated overnight at 37° C. in CO2 atmosphere. On Day 2, the cells were treated with test compounds at concentrations from 0.3 to 10,000 nM using HP D300 digital dispenser. Twenty-four hours after compound treatment, cell culture media is removed by flicking the plate and tapping the plate against clean paper towel. 30 μL 1× lysis buffer was supplemented from the kit was added to each well and the plate was incubated at room temperature on shaker for 30 min. After homogenization by pipetting up and down, 8 μL cell lysate from 96-well cell culture plate was transferred to 384-well small volume white detection plate. 2 μL premixed detection solution was added and the plate was covered with sealer. To prepare the detection solution, d2 conjugated-phospho-RB antibody and Eu-cryptate conjugated phosphor-RB antibody were diluted into detection buffer following manufacturer's instruction. Detection plates were incubated for 4 h at room temperature and read on ClarioStar (BMG Labtech) in TR-FRET mode (665 nM and 620 nM). The TR-FRET ratio (665 nM/620 nM) was plotted against the compound concentration and normalized to DMSO controls. Half maximal inhibition concentration (IC50) values were calculated with a four-parameter logistic fit using GraphPad Prism (version 8; La Jolla, CA).
row,SMILES,IC50
1,"O=C1CCC(N2Cc3cc(N4CCC(Oc5cccc(S(=O)(=O)N6CCC(Nc7ncc(C(F)(F)F)cn7)CC6)c5)CC4)ccc3C2=O)C(=O)N1 (stereo not drawn) [Example 41, 3-(1-ox0-5-(4-(3-((4-((5-(trifluoromethyl)-pyrimidin-2-yl)amino)piperidin-1-yl)sulfonyl)phenoxy)piperidin-1-yl)isoindolin-2-yl)piperidine-2,6-dione]",100 to 500 nM
2,"O=C1CCC(N2Cc3cc(N4CCC(N5CC(Oc6cccc(S(=O)(=O)N7CCC(Nc8ncc(C(F)(F)F)cn8)CC7)c6)C5)CC4)ccc3C2=O)C(=O)N1 (stereo not drawn) [Example 45, 3-(1-ox0-5-(4-(3-(3-((4-((5-(trifluoro-methyl)pyrimidin-2-yl)amino)piperidin-1-yl)sulfonyl)phenoxy)azetidin-1-yl)piperidin-1-yl)isoindolin-2-yl)piperidine-2,6-dione]",100 to 500 nM
3,Cn1nc(N2CCC(=O)NC2=O)c2ccc(N3CC4(CN(Cc5cccc(S(=O)(=O)N6CCC(Nc7ncc(Cl)cn7)CC6)c5)C4)C3)cc21 [Example 46],500 to 2500 nM
4,"O=C1CCC(N2Cc3cc(C4CN(Cc5cccc(S(=O)(=O)N6CCC(Nc7ncc(C(F)(F)F)cn7)CC6)c5)C4)ccc3C2=O)C(=O)N1 (stereo not drawn) [Example 48, 3-(1-oxo-5-(1-(3-((4-((5-(trifluoromethyl)-pyrimidin-2-yl)amino)piperidin-1-yl)sulfonyl)benzyl)azetidin-3-yl)isoindolin-2-yl)piperidine-2,6-dione]",100 to 500 nM
5,"Cn1nc(N2CCC(=O)NC2=O)c2ccc(C3CN(Cc4cccc(S(=O)(=O)N5CCC(Nc6ncc(C(F)(F)F)cn6)CC5)c4)C3)cc21 [Example 49, 1-(1-methyl-6-(1-(3-((4-((5-(trifluoro-methyl)pyrimidin-2-yl)amino)piperidin-1-yl)sulfonyl)benzyl)azetidin-3-yl)-1H-indazol-3-yl)dihydropyrimidine-2,4(1H,3H)-dione]",500 to 2500 nM
6,"O=C1CCC(N2Cc3cc(C4CN(Cc5cccc(S(=O)(=O)N6CCC(Nc7ncc(Cl)cn7)CC6)c5)C4)ccc3C2=O)C(=O)N1 (stereo not drawn) [Example 50, 3-(5-(1-(3-((4-((5-chloropyrimidin-2-yl)amino)piperidin-1-yl)sulfonyl)benzyl)-azetidin-3-yl)-1-oxoisoindolin-2-yl)piperidine-2,6-dione]",500 to 2500 nM
7,"Cn1nc(N2CCC(=O)NC2=O)c2ccc(N3CCN(CC4CCN(c5cccc(S(=O)(=O)N6CCC(Nc7ncc(C(F)(F)F)cn7)CC6)c5)CC4)CC3)cc21 [Example 51, 1-(1-methyl-6-(4-((1-(3-((4-((5-(trifluoro-methyl)pyrimidin-2-yl)amino)piperidin-1-yl)sulfonyl)phenyl)piperidin-4-yl)methyl)piperazin-1-yl)-1H-indazol-3-yl)dihydropyrimidine-2,4(1H,3H)-dione]",500 to 2500 nM
8,"Cn1nc(N2CCC(=O)NC2=O)c2ccc(N3CCN(CC4CCN(c5cccc(S(=O)(=O)N6CCC(Nc7ncc(Cl)cn7)CC6)c5)CC4)CC3)cc21 [Example 52, 1-(6-(4-((1-(3-((4-((5-chloropyrimidin-2-yl)amino)piperidin-1-yl)sulfonyl)phenyl)-piperidin-4-yl)methyl)piperazin-1-yl)-1-methyl-1H-indazol-3-yl)dihydropyrimidine-2,4(1H,3H)-dione]",500 to 2500 nM
9,"Cn1nc(N2CCC(=O)NC2=O)c2ccc(C3CN(Cc4cccc(S(=O)(=O)N5CCC(Nc6ncc(Cl)cn6)CC5)c4)C3)cc21 [Example 56, 1-(6-(1-(3-((4-((5-chloropyrimidin-2-yl)amino)piperidin-1-yl)sulfonyl)benzyl)-azetidin-3-yl)-1-methyl-1H-indazol-3-yl)dihydropyrimidine-2,4(1H,3H)-dione]",500 to 2500 nM
10,"COc1cnc(NC2CCN(S(=O)(=O)c3cccc(CN4CCC(c5ccc6c(N7CCC(=O)NC7=O)nn(C)c6c5)CC4)c3)CC2)nc1 [Example 57, 1-(6-(1-(3-((4-((5-methoxypyrimidin-2-yl)amino)piperidin-1-yl)sulfonyl)benzyl)-piperidin-4-yl)-1-methyl-1H-indazol-3-yl)dihydropyrimidine-2,4(1H,3H)-dione]",500 to 2500 nM
11,"Cn1nc(N2CCC(=O)NC2=O)c2ccc(C3CCN(Cc4cccc(S(=O)(=O)[C@H]5CC[C@H](Nc6ncc(Cl)cn6)CC5)c4)CC3)cc21 [Example 59, 1-(6-(1-(3-(((1r,4r)-4-((5-chloropyrimidin-2-yl)amino)cyclohexyl)sulfonyl)benzyl)piperidin-4-yl)-1-methyl-1H-indazol-3-yl)dihydropyrimidine-2,4(1H,3H)-dione]",> 2500 nM
12,"Cc1cnc(NC2CCN(S(=O)(=O)c3cccc(CN4CCC(c5ccc6c(N7CCC(=O)NC7=O)nn(C)c6c5)CC4)c3)CC2)nc1 [Example 60, 1-(1-methyl-6-(1-(3-((4-((5-methyl-pyrimidin-2-yl)amino)piperidin-1-yl)sulfonyl)benzyl)piperidin-4-yl)-1H-indazol-3-yl)dihydropyrimidine-2,4(1H,3H)-dione]",500 to 2500 nM
13,"O=C1CCN(c2nn(CC(F)(F)F)c3cc(N4CCN(Cc5cccc(S(=O)(=O)N6CCC(Nc7ncc(Cl)cn7)CC6)c5)CC4)ccc23)C(=O)N1 [Example 62, 1-(6-(4-(3-((4-((5-chloropyrimidin-2-yl)amino)piperidin-1-yl)sulfonyl)benzyl)-piperazin-1-yl)-1-(2,2,2-trifluoroethyl)-1H-indazol-3-yl)dihydropyrimidine-2,4(1H,3H)-dione]",100 to 500 nM
14,"Cn1nc(N2CCC(=O)NC2=O)c2ccc(C3CCN(Cc4ccc(S(=O)(=O)N5CCC(Nc6ncc(Cl)cn6)CC5)cc4)CC3)cc21 [Example 63, 1-(6-(1-(4-((4-((5-chloropyrimidin-2-yl)amino)piperidin-1-yl)sulfonyl)benzyl)-piperidin-4-yl)-1-methyl-1H-indazol-3-yl)dihydropyrimidine-2,4(1H,3H)-dione]",1 to 100 nM
15,"Cn1nc(N2CCC(=O)NC2=O)c2ccc(N3CCN(Cc4cccc(S(=O)(=O)[C@H]5CC[C@H](Nc6ncc(Cl)cn6)CC5)c4)CC3)cc21 [Example 67, 1-(6-(4-(3-(((1r,4r)-4-((5-chloropyrimidin-2-yl)amino)cyclohexyl)sulfonyl)benzyl)piperazin-1-yl)-1-methyl-1H-indazol-3-yl)dihydropyrimidine-2,4(1H,3H)-dione]",> 2500 nM
16,"CN(C)c1cnc(NC2CCN(S(=O)(=O)c3cccc(CN4CCC(c5ccc6c(N7CCC(=O)NC7=O)nn(C)c6c5)CC4)c3)CC2)nc1 [Example 70, 1-(6-(1-(3-((4-((5-(dimethylamino)-pyrimidin-2-yl)amino)piperidin-1-yl)-sulfonyl)benzyl)piperidin-4-yl)-1-methyl-1H-indazol-3-yl)dihydropyrimidine-2,4(1H,3H)-dione]",> 2500 nM
17,"O=C1CCC(N2C(=O)c3cc(F)c(N4CCN(Cc5cccc(S(=O)(=O)N6CCC(Nc7ncc(C(F)(F)F)cn7)CC6)c5)CC4)cc3C2=O)C(=O)N1 (stereo not drawn) [Example 72, 2-(2,6-dioxopiperidin-3-yl)-5-fluoro-6-(4-(3-((4-((5-(trifluoromethyl)pyrimidin-2-yl)amino)piperidin-1-yl)sulfonyl)benzyl)-piperazin-1-yl)isoindoline-1,3-dione]",500 to 2500 nM
18,"Cn1nc(N2CCC(=O)NC2=O)c2ccc(C3CCN(Cc4cccc(S(=O)(=O)N5CCC(Nc6ncc(OC(F)F)cn6)CC5)c4)CC3(F)F)cc21 (stereo not drawn) [Example 75, 1-(6-(1-(3-((4-((5-(difluoromethoxy)-pyrimidin-2-yl)amino)piperidin-1-yl)sulfonyl)benzyl)-3,3-difluoropiperidin-4-yl)-1-methyl-1H-indazol-3-yl)dihydropyrimidine-2,4(1H,3H)-dione]",100 to 500 nM
